Laboratory results published in PMC9388906, “Dual inhibition of the Echinococcus multilocularis energy metabolism” (Frontiers in Veterinary Science, 2022).
Read-outs that look alike come from different tables or passages of the source.

Assays:
[1] = test system: E. multilocularis metacestodes; assay: PGI assay, single and combination treatment under normoxic and anaerobic conditions; type: cell-based, Echinococcus multilocularis; details: 5 days
Protocol: The PGI assay measures the amount of PGI that metacestodes release into the medium when damaged ([17], [32]). The purification and in vitro drug incubation of E. multilocularis metacestodes was conducted according to Stadelmann et al. ([32]). In short, cultures were applied for in vitro drug testing at the age of 6-8 weeks. E. multilocularis metacestodes were therefore purified by the addition of 2% saccharose and washed extensively with PBS. Purified metacestodes were suspended 1:3 with DMEM (without phenol red, supplemented with 100 U/mL penicillin, 100 μg/mL streptomycin) and distributed in 48-well plates (1 mL/well, thus 300 μL pure metacestode vesicles per well). […] The corresponding DMSO concentration was used as negative control and Tx-100 (0.1% final concentration) was used for total damage (positive control). […] After 5 days, relative PGI activities were measured and calculated as percentage of the Tx-100 control as described previously in Rufener et al. ([17]). They were calculated as mean values and standard deviations for each triplicate. EC50 calculations were calculated based on logit-log transformed values in Microsoft Office Excel 2010. EC50 measurements were performed twice, and averages and standard deviations of these repeated tests are given.
For double inhibition of the mitochondrial energy pathways of E. multilocularis, quinazoline as an inhibitor of the anaerobic MD ([29]) was applied in combination with ELQ-400 as an inhibitor of the ETC. Both compounds were tested either alone or in combination at 10 μM with the above-described PGI assay for 5 days for their activity against E. multilocularis metacestodes. PGI assays were done in triplicates and two times independently. […] Results of the assays were calculated as mean values and standard deviations for each biological triplicate were calculated as relative percentage to the Tx-100 control. To assess direct effects on the MD, succinate levels were measured in the supernatants of the PGI assay, as described below. […]

[2] = test system: E. multilocularis GL cells (isolate Sval); assay: GL cell viability assay (CellTiter-Glo), isolate Sval; type: cell-based, Echinococcus multilocularis; details: isolate Sval; 0.1 μM; 5 days; nitrogen atmosphere; mean (SD); active if <30%
Protocol: To assess the in vitro efficacy of ELQs against E. multilocularis, (a) the damage-marker phosphoglucose isomerase (PGI) assay was applied against metacestodes, and (b) the germinal layer (GL) cell viability assay was applied to measure effects on isolated GL cells. Both assays are described in more detail below. The drug testing strategy was as follows: PGI assay was first conducted for overview screening at 10 μM with the parasite isolates H95 and Sval. The GL cell viability assay was performed at 0.1 μM with both isolates H95 and Sval.
The isolation of E. multilocularis GL cells was done as described previously ([17]) with minor modifications. Fifteen units of GL cells were distributed to each well of a 384 well plate in a total volume of 12.5 μL conditioned medium. The different ELQs were added to the wells to 0.1 μM, in quadruplicates. As a negative control 0.1% DMSO was used. The 384-well plate was incubated for 5 days at 37°C under humid nitrogen atmosphere. Thereafter, viability of the GL cells under different drug treatments was assessed by CellTiter-Glo® (Promega AG, Dübendorf, Switzerland). The CellTiter-Glo reagent was complemented with 1% Tx-100. The luciferase bioluminescence was measured at 530 nm by using the Enspire multilabel reader (PerkinElmer Life Sciences, Schwerzenbach, Switzerland). Using Microsoft Excel, the blank values were subtracted from the experimental values and the relative viability compared to DMSO was calculated. Viabilities were calculated as mean values and standard deviations for each quadruplicate.

[3] = test system: Reuber rat hepatoma (Rh) cells; assay: Mammalian cell toxicity, Alamar Blue assay; type: cell-based; details: Alamar blue, 5 days, range tested 30–0.23 μM, mean (SD) of two tests
Protocol: Compounds were added in a serial dilution (30–0.23 μM, 1:2 dilution steps) and in triplicates. Plates were incubated at 37°C, 5% CO2 and humid atmosphere for 5 days. Resazurin was added to a final concentration of 10 mg/L to each well, and fluorescence measured at 530 nm on an Enspire multilabel plate reader over 3 h. By using Microsoft Office Excel 2010 and a logit-log transformation of the relative growth, IC50 values were calculated. The test was performed twice for each compound, and respective averages and standard deviations are given.

[4] = test system: mitochondrial bc1 complex of E. multilocularis GL cells; assay: Seahorse oxygen consumption rate assay; type: cell-based, Echinococcus multilocularis; details: 1 μM; succinate as initial electron donor; restored by ascorbate/TMPD, not by succinate or glycerol 3-phosphate
Protocol: To measure effects of ELQ-400 on the oxygen consumption rate (OCR), Seahorse assay was conducted according to the method established by Rufener et al. ([17]) and according to the manual for Seahorse XFp Extracellular Flux Analyzer (Agilent Technologies, Bucher Biotec, Basel, Switzerland). E. multilocularis GL cells were isolated and prepared the day before. Cells were centrifuged and resuspended in Mitochondrial Assay Solution (MAS) solution (220 mM mannitol, 70 mM sucrose, 10 mM KH2PO4, 5 mM MgCl2, 2 mM HEPES, and 1 mM EGTA pH 7.2). This cell suspension was centrifuged again and the pellet was resuspended in assay-buffer (MAS, 10 mM succinate, 2 μM rotenone, 4 mM ADP, and 3.6 nM PMP). 100 units of GL cells were distributed to each well of a Seahorse XFp miniplate (Agilent Technologies) pre-coated with CellTak according to the instruction manual (Fisher Scientific, Schwerte, Germany). Two wells were used as blanks with assay buffer without cells. ELQ-400 (1 μM) was diluted in MAS solution and loaded to the delivery ports of the sensor cartridge of the first injection (or DMSO as a control). In the second injection, succinate (10 mM), glycerol 3-phosphate (10 mM), or ascorbate (20 mM) with TMPD (0.6 mM) was added. […] Each drug setup was tested in triplicates and the read-out and analysis was done using the software Wave (Agilent Technologies, Bucher Biotec, Basel, Switzerland). […]

Compound: Cc1[nH]c2cc(F)cc(F)c2c(=O)c1-c1ccc(Oc2ccc(OC(F)(F)F)cc2)cc1 [ELQ-400]
- PGI release of metacestodes relative to Tx-100 ([1]; 10 μM each, anaerobic (0% O2)): significantly reduced
- PGI release of metacestodes relative to Tx-100 ([1]; 10 μM, normoxic (21% O2)): active
- GL cells, viability via ATP measurements, relative to DMSO control [2]: 14.6 (8.6) %
- IC50 ([3]; confluent Rh cells, read-out: IC50 Rh confluent): > 30000 nM
- IC50 ([3]; preconfluent Rh cells, read-out: IC50 Rh preconfluent): 1460 nM
- Oxygen consumption rate (OCR) of GL cells [4]: immediate reduction of the OCR
